What was measured:
Test in all cases: relative viability (nuclei count vs DMSO), 5 days (fraction); higher = more cells survive
[1] = compound: OCc1c[nH]c2ccccc12 [Indole-3-carbinol] + C[C@@H](Oc1cc(-c2cnn(C3CCNCC3)c2)cnc1N)c1c(Cl)ccc(F)c1Cl [Crizotinib] (partner 1 µM)
Procedure, shortened: (§1)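 Relative viability equals treated-well nuclei counts divided by vehicle-well nuclei counts. Counts came from 4× images of lung cancer cell lines grown in 1536-well plates for 5 days after pin-tool dosing on the day after seeding. Dosing used one drug alone or a fixed anchor-drug dose plus five library-drug doses (not always all listed) in √10 steps, and values are medians of duplicate plates.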

[2] = compound: OCc1c[nH]c2ccccc12 [Indole-3-carbinol] + Nc1ncn([C@H]2C[C@H](O)[C@@H](CO)O2)c(=O)n1 [Decitabine] (partner 2 µM)
Procedure, shortened: as §1

[3] = compound: OCc1c[nH]c2ccccc12 [Indole-3-carbinol] + COc1cc2c(Oc3ccc(NC(=O)C4(C(=O)Nc5ccc(F)cc5)CC4)cc3F)ccnc2cc1OCCCN1CCOCC1 [Foretinib] (partner 0.25 µM)
Procedure, shortened: as §1

[4] = compound: OCc1c[nH]c2ccccc12 [Indole-3-carbinol] + N=C(N)NC(=N)NCCc1ccccc1 [Phenformin] (partner 250 µM)
Procedure, shortened: as §1

[5] = compound: OCc1c[nH]c2ccccc12 [Indole-3-carbinol] + CS(=O)(=O)CCNCc1ccc(-c2ccc3ncnc(Nc4ccc(OCc5cccc(F)c5)c(Cl)c4)c3c2)o1 [Lapatinib] (partner 2 µM)
Procedure, shortened: as §1

[6] = compound: OCc1c[nH]c2ccccc12 [Indole-3-carbinol] + CS(=O)(=O)N1CCN(Cc2cc3nc(-c4cccc5[nH]ncc45)nc(N4CCOCC4)c3s2)CC1 [Pictilisib] (partner 1 µM)
Procedure, shortened: as §1

[7] = compound: OCc1c[nH]c2ccccc12 [Indole-3-carbinol] + CC1(C)CCC(c2ccc(Cl)cc2)=C(CN2CCN(c3ccc(C(=O)NS(=O)(=O)c4ccc(N[C@H](CCN5CCOCC5)CSc5ccccc5)c(S(=O)(=O)C(F)(F)F)c4)cc3)CC2)C1 [Navitoclax] (partner 0.5 µM)
Procedure, shortened: as §1

[8] = compound: OCc1c[nH]c2ccccc12 [Indole-3-carbinol] + C[C@]1(O)C[C@@H](c2nc(-c3ccc4ccc(-c5ccccc5)nc4c3)c3c(N)nccn32)C1 [Linsitinib] (partner 1 µM)
Procedure, shortened: as §1

[9] = compound: OCc1c[nH]c2ccccc12 [Indole-3-carbinol] + Cc1nc(NC(=O)N2CCC[C@H]2C(N)=O)sc1-c1ccnc(C(C)(C)C(F)(F)F)c1 [Alpelisib] (partner 2 µM)
Procedure, shortened: as §1

[10] = compound: OCc1c[nH]c2ccccc12 [Indole-3-carbinol] + O=C(c1cc(Cc2n[nH]c(=O)c3ccccc23)ccc1F)N1CCN(C(=O)C2CC2)CC1 [Olaparib] (partner 8 µM)
Procedure, shortened: as §1

Indole-3-carbinol = compound: OCc1c[nH]c2ccccc12 [Indole-3-carbinol]
Procedure, shortened: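 Viability was defined as treated-well nuclei divided by vehicle-well nuclei, with the median taken over replicate plates. Cells from lung cancer lines sat overnight at 37 °C in 1536-well plates, received five √10-spaced library-drug doses by pinning on vehicle-anchored plates, and grew 5 days without medium change before one-step fixation, permeabilisation and Hoechst staining, 4× imaging and MetaXpress nuclear counts. Only plates with control CV under 25% and at least one doubling were kept.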

[11] = compound: OCc1c[nH]c2ccccc12 [Indole-3-carbinol] + CC(C)C[C@H](NC(=O)[C@H](Cc1ccccc1)NC(=O)c1cnccn1)B(O)O [Bortezomib] (partner 0.002 µM)
Procedure, shortened: as §1

## A549
[1]; first compound 0.253 µM
  relative viability: 0.712
[1]; first compound 0.8 µM
  relative viability: 0.914
[1]; first compound 2.53 µM
  relative viability: 0.819
[1]; first compound 8 µM
  relative viability: 0.765
[2]; first compound 0.253 µM
  relative viability: 0.271
[2]; first compound 0.8 µM
  relative viability: 0.287
[2]; first compound 2.53 µM
  relative viability: 0.272
[2]; first compound 8 µM
  relative viability: 0.235
[3]; first compound 0.253 µM
  relative viability: 0.968
[3]; first compound 0.8 µM
  relative viability: 1.04
[3]; first compound 2.53 µM
  relative viability: 0.911
[3]; first compound 8 µM
  relative viability: 0.965
[4]; first compound 0.253 µM
  relative viability: 0.18
[4]; first compound 0.8 µM
  relative viability: 0.226
[4]; first compound 2.53 µM
  relative viability: 0.254
[4]; first compound 8 µM
  relative viability: 0.156
[5]; first compound 0.253 µM
  relative viability: 0.952
[5]; first compound 0.8 µM
  relative viability: 1.11
[5]; first compound 2.53 µM
  relative viability: 0.995
[5]; first compound 8 µM
  relative viability: 0.938
[6]; first compound 0.253 µM
  relative viability: 0.493
[6]; first compound 0.8 µM
  relative viability: 0.686
[6]; first compound 2.53 µM
  relative viability: 0.555
[6]; first compound 8 µM
  relative viability: 0.456
[7]; first compound 0.253 µM
  relative viability: 1.16
[7]; first compound 0.8 µM
  relative viability: 1.29
[7]; first compound 2.53 µM
  relative viability: 1.22
[7]; first compound 8 µM
  relative viability: 1.17
[8]; first compound 0.253 µM
  relative viability: 0.656
[8]; first compound 0.8 µM
  relative viability: 0.578
[8]; first compound 2.53 µM
  relative viability: 0.697
[8]; first compound 8 µM
  relative viability: 0.545
[9]; first compound 0.253 µM
  relative viability: 0.876
[9]; first compound 0.8 µM
  relative viability: 0.842
[9]; first compound 2.53 µM
  relative viability: 0.832
[9]; first compound 8 µM
  relative viability: 0.66
[10]; first compound 0.253 µM
  relative viability: 0.458
[10]; first compound 0.8 µM
  relative viability: 0.413
[10]; first compound 2.53 µM
  relative viability: 0.356
[10]; first compound 8 µM
  relative viability: 0.322
Indole-3-carbinol; 0.253 µM
  relative viability: 0.951
Indole-3-carbinol; 0.8 µM
  relative viability: 1.03
Indole-3-carbinol; 2.53 µM
  relative viability: 1.02
Indole-3-carbinol; 8 µM
  relative viability: 0.91

## Calu-6
[1]; first compound 0.253 µM
  relative viability: 0.759
[1]; first compound 0.8 µM
  relative viability: 0.863
[1]; first compound 2.53 µM
  relative viability: 0.871
[1]; first compound 8 µM
  relative viability: 0.742
[3]; first compound 0.253 µM
  relative viability: 0.927
[3]; first compound 0.8 µM
  relative viability: 0.941
[3]; first compound 2.53 µM
  relative viability: 0.842
[3]; first compound 8 µM
  relative viability: 0.841
[5]; first compound 0.253 µM
  relative viability: 1.03
[5]; first compound 0.8 µM
  relative viability: 1.12
[5]; first compound 2.53 µM
  relative viability: 1.05
[5]; first compound 8 µM
  relative viability: 0.94
[6]; first compound 0.253 µM
  relative viability: 0.887
[6]; first compound 0.8 µM
  relative viability: 1.05
[6]; first compound 2.53 µM
  relative viability: 0.916
[6]; first compound 8 µM
  relative viability: 0.865
[7]; first compound 0.253 µM
  relative viability: 0.836
[7]; first compound 0.8 µM
  relative viability: 0.947
[7]; first compound 2.53 µM
  relative viability: 0.889
[7]; first compound 8 µM
  relative viability: 0.648
[8]; first compound 0.253 µM
  relative viability: 0.974
[8]; first compound 0.8 µM
  relative viability: 0.88
[8]; first compound 2.53 µM
  relative viability: 1.07
[8]; first compound 8 µM
  relative viability: 0.92
[9]; first compound 0.253 µM
  relative viability: 1.04
[9]; first compound 0.8 µM
  relative viability: 0.966
[9]; first compound 2.53 µM
  relative viability: 0.819
[9]; first compound 8 µM
  relative viability: 0.922
[11]; first compound 0.253 µM
  relative viability: 1.08
[11]; first compound 0.8 µM
  relative viability: 1.1
[11]; first compound 2.53 µM
  relative viability: 1.01
[11]; first compound 8 µM
  relative viability: 0.966
[10]; first compound 0.253 µM
  relative viability: 0.615
[10]; first compound 0.8 µM
  relative viability: 0.629
[10]; first compound 2.53 µM
  relative viability: 0.59
[10]; first compound 8 µM
  relative viability: 0.536
Indole-3-carbinol; 0.253 µM
  relative viability: 1.07
Indole-3-carbinol; 0.8 µM
  relative viability: 0.994
Indole-3-carbinol; 2.53 µM
  relative viability: 1
Indole-3-carbinol; 8 µM
  relative viability: 0.914

## EBC-1
[1]; first compound 0.253 µM
  relative viability: 0.176
[1]; first compound 0.8 µM
  relative viability: 0.188
[1]; first compound 2.53 µM
  relative viability: 0.205
[1]; first compound 8 µM
  relative viability: 0.169
[3]; first compound 0.253 µM
  relative viability: 0.122
[3]; first compound 0.8 µM
  relative viability: 0.0975
[3]; first compound 2.53 µM
  relative viability: 0.1
[3]; first compound 8 µM
  relative viability: 0.102
[5]; first compound 0.253 µM
  relative viability: 0.196
[5]; first compound 0.8 µM
  relative viability: 0.186
[5]; first compound 2.53 µM
  relative viability: 0.228
[5]; first compound 8 µM
  relative viability: 0.244
[6]; first compound 0.253 µM
  relative viability: 0.359
[6]; first compound 0.8 µM
  relative viability: 0.4
[6]; first compound 2.53 µM
  relative viability: 0.347
[6]; first compound 8 µM
  relative viability: 0.364
[7]; first compound 0.253 µM
  relative viability: 0.355
[7]; first compound 0.8 µM
  relative viability: 0.404
[7]; first compound 2.53 µM
  relative viability: 0.39
[7]; first compound 8 µM
  relative viability: 0.415
[8]; first compound 0.253 µM
  relative viability: 0.974
[8]; first compound 0.8 µM
  relative viability: 0.965
[8]; first compound 2.53 µM
  relative viability: 1.07
[8]; first compound 8 µM
  relative viability: 0.71
[9]; first compound 0.253 µM
  relative viability: 0.826
[9]; first compound 0.8 µM
  relative viability: 0.856
[9]; first compound 2.53 µM
  relative viability: 0.83
[9]; first compound 8 µM
  relative viability: 0.719
[11]; first compound 0.253 µM
  relative viability: 0.546
[11]; first compound 0.8 µM
  relative viability: 0.541
[11]; first compound 2.53 µM
  relative viability: 0.628
[11]; first compound 8 µM
  relative viability: 0.477
[10]; first compound 0.253 µM
  relative viability: 0.684
[10]; first compound 0.8 µM
  relative viability: 0.732
[10]; first compound 2.53 µM
  relative viability: 0.631
[10]; first compound 8 µM
  relative viability: 0.566
Indole-3-carbinol; 0.253 µM
  relative viability: 0.938
Indole-3-carbinol; 0.8 µM
  relative viability: 1.01
Indole-3-carbinol; 2.53 µM
  relative viability: 1.07
Indole-3-carbinol; 8 µM
  relative viability: 0.871

## NCI-H1299
[1]; first compound 0.253 µM
  relative viability: 0.924
[1]; first compound 0.8 µM
  relative viability: 1
[1]; first compound 2.53 µM
  relative viability: 0.952
[1]; first compound 8 µM
  relative viability: 0.906
[3]; first compound 0.253 µM
  relative viability: 1.07
[3]; first compound 0.8 µM
  relative viability: 1.07
[3]; first compound 2.53 µM
  relative viability: 1.14
[3]; first compound 8 µM
  relative viability: 1.04
[5]; first compound 0.253 µM
  relative viability: 0.892
[5]; first compound 0.8 µM
  relative viability: 0.997
[5]; first compound 2.53 µM
  relative viability: 0.925
[5]; first compound 8 µM
  relative viability: 0.945
[6]; first compound 0.253 µM
  relative viability: 0.795
[6]; first compound 0.8 µM
  relative viability: 0.879
[6]; first compound 2.53 µM
  relative viability: 0.691
[6]; first compound 8 µM
  relative viability: 0.761
[7]; first compound 0.253 µM
  relative viability: 1.01
[7]; first compound 0.8 µM
  relative viability: 1.05
[7]; first compound 2.53 µM
  relative viability: 1.03
[7]; first compound 8 µM
  relative viability: 1.02
[8]; first compound 0.253 µM
  relative viability: 0.986
[8]; first compound 0.8 µM
  relative viability: 1
[8]; first compound 2.53 µM
  relative viability: 1.02
[8]; first compound 8 µM
  relative viability: 0.869
[9]; first compound 0.253 µM
  relative viability: 1.05
[9]; first compound 0.8 µM
  relative viability: 1.11
[9]; first compound 2.53 µM
  relative viability: 1.11
[9]; first compound 8 µM
  relative viability: 1.01
[11]; first compound 0.253 µM
  relative viability: 0.977
[11]; first compound 0.8 µM
  relative viability: 1.02
[11]; first compound 2.53 µM
  relative viability: 1.01
[11]; first compound 8 µM
  relative viability: 1.03
[10]; first compound 0.253 µM
  relative viability: 0.907
[10]; first compound 0.8 µM
  relative viability: 0.995
[10]; first compound 2.53 µM
  relative viability: 0.954
[10]; first compound 8 µM
  relative viability: 0.952
Indole-3-carbinol; 0.253 µM
  relative viability: 1.02
Indole-3-carbinol; 0.8 µM
  relative viability: 1.04
Indole-3-carbinol; 2.53 µM
  relative viability: 0.999
Indole-3-carbinol; 8 µM
  relative viability: 0.989

From the supplement of paper PMC10307832
